Results on five molecules are retold here after ChEMBL document CHEMBL1201861, “Genomics of Drug Sensitity in Cancer screening data, Wellcome Trust Sanger Institute”.

Holding throughout (experiment): cells
Common to all, as to format: functional, cell-based

Assay [1] relates to NBsusSR. As to conditions: Homo sapiens.
Description: SANGER: Inhibition of human NBsusSR cell growth in a cell viability assay.
For assay [2], the system named is BALL-1. Particulars: Homo sapiens.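 Also: growth inhibition of BALL-1 cells, read out with a cell viability assay.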
Description: SANGER: Inhibition of human BALL-1 cell growth in a cell viability assay.
Assay [3] deals with D-566MG. Particulars: Homo sapiens.
In assay [4] the test system is NCI-H1048. Particulars: Homo sapiens.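 Also: growth inhibition of human NCI-H1048 cells, read out with a cell viability assay.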
Description: SANGER: Inhibition of human NCI-H1048 cell growth in a cell viability assay.
Assay [5] relates to EPLC-272H. As to conditions: Homo sapiens.
Description: SANGER: Inhibition of human EPLC-272H cell growth in a cell viability assay.
The test system of assay [6] is A549. As to conditions: Homo sapiens.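 Also: growth inhibition of A549 cells, read out with a cell viability assay.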
Description: SANGER: Inhibition of human A549 cell growth in a cell viability assay.
In assay [7] the test system is NCI-H1666. As to conditions: Homo sapiens.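 Also: growth inhibition of the cell line, read out with a cell viability assay.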
Description: SANGER: Inhibition of human NCI-H1666 cell growth in a cell viability assay.
Assay [8] has as its system ZR-75-30. As to conditions: Homo sapiens.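 Also: growth inhibition of ZR-75-30 cells, measured with a cell viability readout.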
Description: SANGER: Inhibition of human ZR-75-30 cell growth in a cell viability assay.
For assay [9], the system named is YH-13. Particulars: Homo sapiens.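 Also: cell viability readout of growth suppression in the human YH-13 cell line.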
Description: SANGER: Inhibition of human YH-13 cell growth in a cell viability assay.
Assay [10] concerns SW 1116. As to conditions: Homo sapiens.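 Also: growth inhibition of SW1116 cells, read out with a cell viability assay.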
Description: SANGER: Inhibition of human SW1116 cell growth in a cell viability assay.
The test system of assay [11] is RH-18. As to conditions: Homo sapiens, Rh18.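 Also: growth inhibition of human RH-18 cells, read out with a cell viability assay.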
Description: SANGER: Inhibition of human RH-18 cell growth in a cell viability assay.
The test system of assay [12] is D-423MG. As to conditions: Homo sapiens.
Description: SANGER: Inhibition of human D-423MG cell growth in a cell viability assay.
In assay [13] the test system is KNS-62. Particulars: Homo sapiens.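 Also: inhibition of cell growth, read out with a cell viability assay.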
Description: SANGER: Inhibition of human KNS-62 cell growth in a cell viability assay.
Assay [14] has as its system NCI-H2029. As to conditions: Homo sapiens.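 Also: Read-out is a viability assay on the cultured cells, and IC50 is the concentration that suppresses cell growth.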
Description: SANGER: Inhibition of human NCI-H2029 cell growth in a cell viability assay.
The subject of assay [15] is NCI-H2291. As to conditions: Homo sapiens.
Description: SANGER: Inhibition of human NCI-H2291 cell growth in a cell viability assay.
The test system of assay [16] is CFPAC-1. Particulars: Homo sapiens.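 Also: cell viability readout used to gauge suppression of CFPAC-1 cell proliferation.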
Description: SANGER: Inhibition of human CFPAC-1 cell growth in a cell viability assay.

For orientation: IC50 means the concentration that gives 50% inhibition. Higher therefore signals lower potency.

`Cc1ccc(-n2nc(C(C)(C)C)cc2NC(=O)Nc2ccc(OCCN3CCOCC3)c3ccccc23)cc1` [DORAMAPIMOD]: the IC50 in assay [1] is above 10000 nM; in [2], above 10 µM; in assay [3] it was above 10000 nM; in [4] it was above 10000 nM; in assay [5], above 10000 nM; in assay [6], above 10000 nM. The IC50 is above 10 µM in assay [7]; above 10 µM in [8]; above 10000 nM in [9]; above 10 µM in [10]; above 10 µM in [11]; above 10000 nM in [12]. Moreover, the IC50 in [13], in assay [14], in assay [15] and in [16] was above 10 µM each time.

In the case of `CC1(C)CCC(c2ccc(Cl)cc2)=C(CN2CCN(c3ccc(C(=O)NS(=O)(=O)c4ccc(N[C@H](CCN5CCOCC5)CSc5ccccc5)c(S(=O)(=O)C(F)(F)F)c4)cc3)CC2)C1` [NAVITOCLAX], the IC50 in assay [1] is above 2000 nM; in [2], above 2 µM; in [3], above 2000 nM; in assay [4] it was 510 nM; in assay [5], above 2000 nM; in assay [6], above 2000 nM. The IC50 in assay [7] was above 2 µM; in assay [8], above 2 µM; in assay [9] it was above 2000 nM; in assay [10], above 2 µM; in [11] it was 0.0605 µM; in assay [12], above 2000 nM. Further, the IC50 in assay [13], in assay [14], in [15] and in assay [16] was above 2 µM each time.

Consider `O=C1NC(=O)c2c1c(-c1ccccc1Cl)cc1[nH]c3ccc(O)cc3c21`, for which the IC50 in [1] is 952 nM; in assay [2], above 2 µM; in assay [3], above 2000 nM; in [4], above 2000 nM; in [5], above 2000 nM; in [6], above 2000 nM. Moreover, the IC50 in [7] is above 2 µM; in assay [8], above 2 µM; in [9] it was above 2000 nM; in [10], above 2 µM; in assay [11], above 2 µM; in assay [12], above 2000 nM. Besides, the IC50 in assay [14], in assay [15] and in assay [16] was above 2 µM each time.

Regarding `O=C(NCCCNc1nc(Nc2cccc(NC(=O)N3CCCC3)c2)ncc1I)c1cccs1` [BX-795], the IC50 in [1] was 1250 nM; in [2], above 5 µM; in assay [3], 1300 nM; in assay [4] it was 1790 nM; in assay [5], above 5000 nM; in assay [6], 2140 nM. Also, the IC50 in assay [7] is above 5 µM; in [8] it was above 5 µM; in assay [9] it was 629 nM; in assay [10], above 5 µM; in assay [11], above 5 µM; in assay [12], 1610 nM. Also, the IC50 in assay [13], in assay [14], in assay [15] and in [16] was above 5 µM throughout.

As for `NC1(c2ccc(-c3nc4ccn5c(=O)[nH]nc5c4cc3-c3ccccc3)cc2)CCC1` [MK-2206], the IC50 in assay [1] was above 4000 nM; in assay [2], above 4 µM; in assay [3] it was above 4000 nM; in assay [4] it was 2970 nM; in [5], 1170 nM; in assay [6] it was above 4000 nM. Also, the IC50 is above 4 µM in assay [8]; 2460 nM in [9]; above 4 µM in assay [10]; above 4 µM in assay [11]; 2410 nM in assay [12]; 3.63 µM in [13]. Further, the IC50 in assay [14], in [15] and in assay [16] was above 4 µM throughout.
